“Also recorded” adds a separate entry of the source. Like-named read-outs stand apart in the source and are kept apart here.
Columns and labels:
stage 2 HAT = assay: Stage 2 model of CNS disease; format: in vivo
T. b. brucei S427 [1] = assay: Stage 1 efficacy study in NMRI mice; format: in vivo
Protocol: (§1) Stage 1 efficacy experiments using T. b. brucei S427 were performed as described,[44] with minor modifications. In brief, male SD rats (38) or female HRN (16) and NMRI (16, 38) mice (3–5 per group) were injected intraperitoneally with 1 × 10^4 BSFs of T. brucei. These BSFs come from a stock of cryopreserved stabilates containing 10% glycerol. The stabilate was suspended in 20 mM Hanks’ balanced salt solution with glucose to obtain a trypanosome concentration of 5 × 10^4 cells mL^–1. Each mouse was injected with 0.2 mL. […] Dose concentrations were 1.25, 2.5, 5, 7.5, 10, 30, and 50 mg kg^–1 free base (16) or 100 mg kg^–1 free base (38). The doses were prepared fresh daily, using 5% DMSO/40% PEG400/55% Milli-Q (16) or 15% solutol/85% Milli-Q (38), and the dose volume was 10 mL kg^–1. One group of three mice was an untreated control group.

[2] = Mouse brain penetration (brain:blood ratio); format: in vivo, female NMRI mice; settings: mice, bolus of test compound, total compound
Protocol: Medicines for HAT are required to treat both acute and chronic infections, where parasites pass through the blood/brain barrier and enter the CNS. With this in mind, mice were dosed with an […] bolus of our test compounds, and compound concentrations in blood and brain were determined by UPLC–MS/MS. […] The brain fraction unbound was 0.0063 for 16 and 0.0313 for 38. Brain penetration of the series as a whole tracked with the generally accepted rules of CNS penetration, with a lower topological PSA (TPSA) and molecular weight compounds having an increased B/B ratio (Table S2 and Figure S1). However, the link between log P and the B/B ratio was slightly less convincing. […] This difference could be explained by 18 being a substrate for the P-glycoprotein efflux pump.
Each compound was dosed as an IV bolus at 10 mg kg^–1 dissolved in 15% solutol/Milli-Q (dose volume 10 mL kg^–1) to female NMRI mice (n = 3). At 30 min following the IV bolus of the test compound, mice (n = 3/time point) were placed under terminal anesthesia with isoflurane. A blood sample was taken by cardiac puncture and added to two volumes of distilled water, and the brain was removed. […] For each mouse at each time point, the concentration in the brain (ng g^–1) was divided by the concentration in blood (ng mL^–1) to give a brain: blood ratio.

[3] = mouse, in vivo, ip
[4] = Pharmacokinetics in HRN mice; settings: IP, 10 mg kg^–1
T. b. brucei S427 [5] = assay: Stage 1 efficacy study in rats; format: in vivo, male SD rats; settings: infected rats, single dose, 100 mg kg^–1 PO
Protocol: as §1

[6] = Human microsomal intrinsic clearance; format: in vitro ADME; settings: second value of mouse/human cell
[7] = Tolerability / maximum tolerated dose; settings: NMRI mice, IP
[8] = test system: Tb927.8.6290 overexpressing cell lines (WT); assay: Drug sensitivity, line overexpressing Tb927.8.6290 WT; format: cell-based, T. b. brucei; settings: for EC50: Trypanosoma brucei
Protocol: (§2) Drug sensitivity assays were carried out with BSF T. b. brucei “single marker” S427 or BSF T. b. brucei, Lister 427, MiTat 1.2, clone 221a 2T1 cells,[45] cells grown at 37 °C with 5% CO2 in an HMI-9T medium[46] as previously described.[47] 2T1 cells were initially maintained with 1 μg mL^–1 puromycin and 1 μg mL^–1 phleomycin prior to transfection or 2.5 μg mL^–1 hygromycin and 1 μg mL^–1 phleomycin after transfection. Induction of overexpression was achieved by the addition of 1 μg mL^–1 tetracycline to the culture medium.
(§3) The following primers were used to PCR amplify Tb927.8.6290 from genomic DNA isolated from wild-type and 38-resistant trypanosomes 5′-[…]-3′ (PacI site in bold) and 5′-[…]-3′ (BamHI site in bold). The PCR products (1272 bp) were then cloned into the pRPa plasmid.[53] The accuracy of the plasmid constructs was confirmed by in-house Sanger sequencing and then linearized with AscI prior to transfection. The linearized plasmids were introduced into 2T1 T. b. brucei cells following removal of puromycin from the media and selected with 2.5 μg mL^–1 hygromycin and 1 μg mL^–1 phleomycin. Two independent clones were selected for further studies.

[9] = test system: Tb927.8.6290 overexpressing cell lines (A258P); assay: Drug sensitivity, line overexpressing Tb927.8.6290 A258P; format: cell-based, T. b. brucei; settings: for EC50: Trypanosoma brucei
Protocol: as §2, §3

T. brucei RES I = assay: Drug sensitivity, compound 38-resistant clone RES I; format: cell-based, T. b. brucei
Protocol: as §2
(§4) Compound-resistant cell lines were generated by subculturing a clone of T. brucei in the continuous presence of 38. Starting at sublethal concentrations, drug concentrations in two independent cultures were increased in a stepwise manner, usually 2-fold. When parasites were able to survive and grow in concentrations of drugs equivalent to more than 10 times the established EC50 value, the resulting cell lines were cloned by limiting dilution in the presence of the compound. Two clones (RES I-II) were selected for further biological study. A standard alkaline lysis protocol was used to isolate genomic DNA from compound-resistant bloodstream T. brucei parasites (∼1 × 10^8). Whole genome sequencing was performed using a DNB-seq next-generation sequencing platform (BGI, Hong Kong). Sequencing reads (150 bp) were aligned to the T. brucei TREU927 genome (v39; tritrypDB) using Bowtie2[48] and Samtools[49] software. […] Samtools and BCFtools[52] (mpileup) were used to call SNP and indels compared with the wild-type starter clone, where the overall quality score (QUAL) was >100. Artemis[50] was used to analyze chromosome and gene copy number variation, as well as visualization of SNPs.

T. brucei RES II = assay: Drug sensitivity, compound 38-resistant clone RES II; format: cell-based, T. b. brucei
Protocol: as §2, §4

[10] = Mammalian cell counter screen (MRC-5); format: cell-based, human; settings: human, MRC-5 fibroblasts; mean values; number of replicates in parentheses
Protocol: Drug sensitivity assays with BSF T. b. brucei “single marker” S427 and human MRC-5 fibroblasts were conducted as previously described.[43]

[11] = relative to the parental wild-type, in brackets

## (4-Amino-2-(cyclohexylamino)thiazol-5-yl)(2,6-difluorophenyl)methanone [Compound 16]
Stage 2 HAT
  efficacy in stage 2 disease model: not efficacious
T. b. brucei S427 [1]; IP 10 mg kg^–1 twice daily for 4 days
  stage 1 efficacy (cure = no parasitemia for 30 days): complete cure; also recorded: efficacious
[2]
  brain/blood (B/B) ratio: 3.3
[3]
  exposure in HRN mice relative to NMRI mice: 15 fold
[4]
  AUC: 1,000,000 ng mL h^–1
  Tmax: 30 min

## CC(C)(O)CC(=O)c1sc(Nc2ccc(F)c(F)c2)nc1N [Compound 38, 1-(4-Amino-2-((3,4-difluorophenyl)amino)thiazol-5-yl)-3-hydroxy-3-methylbutan-1-one]
T. b. brucei S427 [1]; bid 4 days 100 mg kg^–1
  stage 1 efficacy, parasitemia: no reduction in parasitemia
T. b. brucei S427 [5]
  stage 1 efficacy, parasitemia: no reduction in parasitemia
[6]
  CLint (human): < 0.5 mL·min/g
[7]
  maximum dose chosen following maximum tolerated dose study: 100 mg kg^–1
[2]; female, NMRI, mouse, brain and blood, 10 mg kg^–1, read-out: brain/blood (B/B) ratio
  Kp at 30 min: 1.4
[8]; read-out: EC50, WT +TET
  EC50: 10 ± 0.25 µM
[8]; read-out: EC50, WT –TET
  EC50: 0.4 ± 0.025 µM
[8]; −TET vs +TET EC50, in brackets
  fold shift, WT: 26
[9]; read-out: EC50, A258P +TET
  EC50: 12 ± 0.25 µM
[9]; read-out: EC50, A258P –TET
  EC50: 0.31 ± 0.009 µM
[9]; −TET vs +TET EC50, in brackets
  fold shift, A258P: 40
T. brucei RES I; Trypanosoma brucei, read-out: EC50, RES I
  EC50: 2.2 ± 0.084 µM
T. brucei RES I; [11]
  fold resistance, RES I: 7
T. brucei RES II; Trypanosoma brucei, read-out: EC50, RES II
  EC50: 8.2 ± 0.49 µM
T. brucei RES II; [11]
  fold resistance, RES II: 26
[10]
  EC50: 46 µM

— PMC10350920, “Development of a 2,4-Diaminothiazole Series for the Treatment of Human African Trypanosomiasis Highlights the Importance of Static–Cidal Screening of Analogues” (Journal of Medicinal Chemistry, 2023)
